Values belong to the molecule of their own block, whether it stands above or below them.
Key:
CYP2D6 = CYP2D6 (Homo sapiens (Human), UniProt P10635); assay: General Multi-Point Cocktail DDI IC50 Assay (CYP2D6)
Method: General Multi-Point Cocktail DDI IC50 Assay Conditions:
The incubation volume is 0.1 mL, utilizing a 384-well plate format. […] Substrate concentrations are near Km values that had been previously determined and incubation times are selected based on determinations of reaction velocity linearity. […] Samples are directly injected on an HPLC/MS/MS system. A Biomek FX workstation is used for liquid handling and sample incubation.

GSH Incubation Assay = type: in vitro ADME; details: for formation of GSH adducts: following incubations; for Observed GSH adducts: glutathione (50 mM) at 37° C. in buffer for 4 hours
Method: The test compound (10 μM in DMSO) was incubated with L-glutathione (50 mM, prepared in 100 mM potassium phosphate buffer) at 37° C. for 4 hours and then analyzed by HPLC-UV/MS/MS without work-up. Thermo Accela HPLC and Velos Pro Orbitrap Elite (S/N: SN05189B) operating in positive mode with a source voltage of 3.5 kV with data dependant processing. […] Product assignments were based on high resolution mass spectrometer fragmentation.

MDR1 (P-glycoprotein) [1] = assay: Pgp Liability MDR1 Er; type: in vitro ADME; details: dog, MDCK-MDR1
Description: (§1) MDR1 Efflux Ratio (MDR Er) from MDR1-transfected MDCK line cell line represents the ratio of permeability, Papp BA/AB.

[2] = HLM CLint (clearance in human liver microsomes); type: in vitro ADME
BACE1 = BACE1 (Homo sapiens (Human), UniProt P56817); assay: BACE1 Cell-Free Assay (fluorescence polarization); type: biochemical; details: geometric mean of 2-4 determinations unless otherwise indicated (b: ≧5 determinations; c: single determination); read-out: BACE 1 Cell-free Assay IC50
Description: This assay measures the inhibition of the beta-secretase enzyme as it cleaves a non-native peptide.
A synthetic APP substrate that can be cleaved by beta-secretase having N-term inal biotin and made fluorescent by the covalent attachment of Oregon Green at the Cys residue is used to assay beta-secretase activity in the presence or absence of the inhibitory compounds. The substrate is Biotin-[…]-C[Oregon Green]KK-OH. The BACE1 enzyme is affinity purified material from conditioned media of CHO-K1 cells that have been transfected with a soluble BACE construct (BACE1deltaTM96His). […] Plates are covered and incubated for 3 hours at 37° C. […] The activity of the beta-secretase enzyme is detected by changes in the fluorescence polarization that occur when the substrate is cleaved by the enzyme.

[3] = test system: sAPPβ in H4 human neuroglioma cells over-expressing wild-type human APP695; assay: sAPPβ Whole-Cell Assay (WCA); type: cell-based; details: 18 h
Method: sAPPβ Whole-Cell Assay (WCA):
sAPPβ, the primary cleavage product of BACE1, was determined in H4 human neuroglioma cells over-expressing the wild-type human APP695. […] The colorimetric reaction was read by an EnVision (PerkinElmer) plate-reader.

BACE2/BACE1 = BACE2/BACE1 Binding Ratio (scintillation proximity binding assays); set-up: species or system human; details: ratio of IC50 from respective binding assays, pH 6.0
Method: BACE2/BACE1 Binding Ratio:
The BACE1 and BACE2 binding assays measured beta-site amyloid precursor protein-cleaving enzyme (BACE) binding as a decrease in the counts of radioligand bound in a scintillation proximity assay (SPA). […] Full length human BACE1 or BACE2 over-expressed in HEK cells was prepared by Pfizer scientists. Frozen stock cell paste was reacted in 50 mM sodium acetate buffer (pH=6.0) containing 3H-(4aR,6R,8aS)-8a-(2,4-difluorophenyl)-6-(1-methyl-1H-pyrazol-4-yl)-4,4a,5,6,8,8a-hexahydropyrano[3,4-d][1,3]thiazin-2-amine ligand, SPA bead and 60 μM to 600 pM of test compound in an assay volume of 27 uL. The compound plate also contained positive (BACE inhibitor) and negative (DMSO) control wells. The binding was carried out at room temperature for 30 minutes and then the plates were read on a TriLux Microbeta reader to determine the number of counts bound.

MDR1 (P-glycoprotein) [4] = molecular target: MDR1 (P-glycoprotein) (Homo sapiens (Human), UniProt P08183); assay: Pgp Liability MDR1 Er; type: in vitro ADME; details: MDR1-transfected MDCK line, ratio of permeability Papp BA/AB
Description: as §1

CYP2D6, sequence (P10635 whole entry): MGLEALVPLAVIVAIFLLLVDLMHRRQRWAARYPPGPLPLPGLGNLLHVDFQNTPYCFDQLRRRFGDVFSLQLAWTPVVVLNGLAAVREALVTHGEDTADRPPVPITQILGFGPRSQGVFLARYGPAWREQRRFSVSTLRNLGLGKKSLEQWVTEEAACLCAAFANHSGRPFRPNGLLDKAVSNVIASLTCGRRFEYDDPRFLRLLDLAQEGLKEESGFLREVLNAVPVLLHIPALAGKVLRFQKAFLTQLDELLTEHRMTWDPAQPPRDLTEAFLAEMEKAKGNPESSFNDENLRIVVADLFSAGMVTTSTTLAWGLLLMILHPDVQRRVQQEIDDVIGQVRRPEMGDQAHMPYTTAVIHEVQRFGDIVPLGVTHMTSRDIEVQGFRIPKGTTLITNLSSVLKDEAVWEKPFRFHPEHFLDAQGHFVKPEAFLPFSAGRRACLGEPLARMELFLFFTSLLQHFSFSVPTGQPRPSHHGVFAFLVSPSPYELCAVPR
MDR1 (P-glycoprotein) (Homo sapiens (Human), UniProt P08183), sequence (P08183 whole entry): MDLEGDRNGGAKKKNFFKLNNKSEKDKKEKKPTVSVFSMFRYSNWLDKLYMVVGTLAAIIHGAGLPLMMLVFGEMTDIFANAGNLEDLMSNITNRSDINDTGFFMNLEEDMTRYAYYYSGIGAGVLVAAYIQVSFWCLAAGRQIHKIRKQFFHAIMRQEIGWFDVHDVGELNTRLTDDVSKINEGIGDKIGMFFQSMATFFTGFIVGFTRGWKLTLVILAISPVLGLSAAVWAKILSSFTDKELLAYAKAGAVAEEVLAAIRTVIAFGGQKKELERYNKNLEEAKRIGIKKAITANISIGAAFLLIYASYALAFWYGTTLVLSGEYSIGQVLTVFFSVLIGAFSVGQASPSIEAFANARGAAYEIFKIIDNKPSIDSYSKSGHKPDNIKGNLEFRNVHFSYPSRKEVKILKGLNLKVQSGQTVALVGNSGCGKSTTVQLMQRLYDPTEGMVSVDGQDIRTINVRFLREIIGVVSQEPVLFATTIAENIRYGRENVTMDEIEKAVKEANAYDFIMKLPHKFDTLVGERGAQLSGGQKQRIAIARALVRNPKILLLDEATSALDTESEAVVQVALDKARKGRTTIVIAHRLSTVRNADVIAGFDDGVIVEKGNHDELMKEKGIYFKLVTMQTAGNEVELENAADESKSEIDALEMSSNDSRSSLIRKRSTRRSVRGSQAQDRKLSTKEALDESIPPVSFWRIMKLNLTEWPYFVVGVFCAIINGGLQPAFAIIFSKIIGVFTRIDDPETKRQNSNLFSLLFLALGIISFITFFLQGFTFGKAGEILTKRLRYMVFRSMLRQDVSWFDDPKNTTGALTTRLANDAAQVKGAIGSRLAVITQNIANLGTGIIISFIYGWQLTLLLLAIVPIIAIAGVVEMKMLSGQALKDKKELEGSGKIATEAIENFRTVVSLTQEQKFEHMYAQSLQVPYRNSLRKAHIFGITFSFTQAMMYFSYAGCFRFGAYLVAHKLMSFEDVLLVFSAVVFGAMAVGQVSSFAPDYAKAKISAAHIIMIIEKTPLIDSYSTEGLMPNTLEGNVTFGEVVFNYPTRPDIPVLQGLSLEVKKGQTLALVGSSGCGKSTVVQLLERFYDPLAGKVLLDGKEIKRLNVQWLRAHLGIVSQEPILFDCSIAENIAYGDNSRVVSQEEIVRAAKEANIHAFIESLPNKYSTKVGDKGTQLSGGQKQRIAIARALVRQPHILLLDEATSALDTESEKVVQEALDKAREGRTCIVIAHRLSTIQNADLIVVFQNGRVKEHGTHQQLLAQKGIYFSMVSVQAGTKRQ
BACE1, sequence (P56817 46-457): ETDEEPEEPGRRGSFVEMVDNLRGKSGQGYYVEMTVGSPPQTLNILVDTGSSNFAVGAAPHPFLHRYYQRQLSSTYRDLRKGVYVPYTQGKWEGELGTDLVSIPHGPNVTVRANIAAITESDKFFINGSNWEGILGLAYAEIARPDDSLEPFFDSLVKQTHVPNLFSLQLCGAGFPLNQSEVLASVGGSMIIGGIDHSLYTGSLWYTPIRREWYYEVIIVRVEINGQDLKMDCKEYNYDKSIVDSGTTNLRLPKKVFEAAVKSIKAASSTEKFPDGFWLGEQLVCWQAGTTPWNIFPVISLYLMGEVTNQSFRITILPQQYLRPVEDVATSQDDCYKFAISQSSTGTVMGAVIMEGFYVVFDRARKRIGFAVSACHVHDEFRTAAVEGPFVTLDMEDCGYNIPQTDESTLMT

Structure (SMILES): C[C@H]1C[C@H]2CSC(N)=N[C@@]2(c2nc(NC(=O)c3cnc(OC(F)F)cn3)cs2)CO1 [Example 2, N-{2-[(4aR,6S,8aR)-2-amino-6-methyl-4,4a,5,6-tetrahydropyrano[3,4-d][1,3]thiazin-8a(8H)-yl]-1,3-thiazol-4-yl}-5-(difluoromethoxy)pyrazine-2-carboxamide]
IC50 (CYP2D6): < 30000 nM
formation of GSH adducts (GSH Incubation Assay): not detected
Observed GSH adducts (GSH Incubation Assay): Negative
efflux ratio (MDR1 (P-glycoprotein) [1]): < 2.5

Structure (SMILES): C[C@H]1C[C@H]2CSC(N)=N[C@@]2(c2nc(NC(=O)c3ccc(OC(F)F)cn3)ccc2F)CO1 [Comparator 2]
HLM CLint [2]: 22.9 mL/min/kg

Structure (SMILES): C[C@H]1C[C@H]2CSC(N)=N[C@@]2(c2nc(NC(=O)c3coc(CF)n3)cs2)CO1 [Example 3, N-{2-[(4aR,6S,8aR)-2-amino-6-methyl-4,4a,5,6-tetrahydropyrano[3,4-d][1,3]thiazin-8a(8H)-yl]-1,3-thiazol-4-yl}-2-(fluoromethyl)-1,3-oxazole-4-carboxamide]
IC50 (BACE1): 0.7 nM

Structure (SMILES): NC1=N[C@@]2(c3cc(NC(=O)c4ccc(OC(F)F)cn4)ccc3F)COCC[C@H]2CS1 [Comparator 4]
IC50 [3]: < 1 nM
HLM CLint [2]: 8.3 mL/m in/kg mL/min/kg
Pgp liability MDR1 Er (MDR1 (P-glycoprotein) [4]): 6.8

Structure (SMILES): C[C@H]1C[C@H]2CSC(N)=N[C@@]2(c2nc(NC(=O)c3ccc(OC(F)F)cn3)cs2)CO1 [Example 1, N-{2-[(4aR,6S,8aR)-2-amino-6-methyl-4,4a,5,6-tetrahydropyrano[3,4-d][1,3]thiazin-8a(8H)-yl]-1,3-thiazol-4-yl}-5-(difluoromethoxy)pyridine-2-carboxamide]
IC50 (CYP2D6): < 30000 nM
formation of GSH adducts (GSH Incubation Assay): not detected
Observed GSH adducts (GSH Incubation Assay): Negative

Structure (SMILES): NC1=N[C@@]2(c3cc(NC(=O)c4ccc(OC(F)F)cn4)ccc3F)CO[C@@H](C(F)(F)F)C[C@H]2CS1 [Comparator 6]
IC50 [3]: < 1 nM
BACE2/BACE1 Binding Ratio (BACE2/BACE1): 1.0
Pgp liability MDR1 Er (MDR1 (P-glycoprotein) [4]): 3.2

Further lines, results first:

IC50 (CYP2D6): < 30000 nM
formation of GSH adducts (GSH Incubation Assay): not detected
Observed GSH adducts (GSH Incubation Assay): Negative
Structure (SMILES): Cc1cc(OC(F)F)cnc1C(=O)Nc1csc([C@]23CO[C@@H](C)C[C@H]2CSC(N)=N3)n1 [Example 45, N-{2-[(4aR,6S,8aR)-2-amino-6-methyl-4,4a,5,6-tetrahydropyrano[3,4-d][1,3]thiazin-8a(8H)-yl]-1,3-thiazol-4-yl}-5-(difluoromethoxy)-3-methylpyridine-2-carboxamide]

IC50 (BACE1): 0.9 nM
Structure (SMILES): C[C@H]1C[C@H]2CSC(N)=N[C@@]2(c2nc(NC(=O)c3ccn(C(F)F)n3)cs2)CO1 [Example 4, N-{2-[(4aR,6S,8aR)-2-amino-6-methyl-4,4a,5,6-tetrahydropyrano[3,4-d][1,3]thiazin-8a(8H)-yl]-1,3-thiazol-4-yl}-1-(difluoromethyl)-1H-pyrazole-3-carboxamide]

IC50 [3]: < 1 nM
BACE2/BACE1 Binding Ratio (BACE2/BACE1): 1.0
HLM CLint [2]: 34.4 mL/min/kg
Structure (SMILES): C[C@H]1C[C@H]2CSC(N)=N[C@@]2(c2cc(NC(=O)c3ccc(Cl)cn3)ccc2F)CO1 [Comparator 7]

Pgp liability MDR1 Er (MDR1 (P-glycoprotein) [4]): 7.1
Structure (SMILES): C[C@H]1C[C@H]2CSC(N)=N[C@@]2(c2nc(NC(=O)c3ccc(OC(F)F)cn3)cs2)CO1 [Comparator 1]

IC50 (CYP2D6): < 30000 nM
formation of GSH adducts (GSH Incubation Assay): not detected
Observed GSH adducts (GSH Incubation Assay): Negative
Structure (SMILES): C[C@H]1C[C@H]2CSC(N)=N[C@@]2(c2nc(NC(=O)c3ccc(Cl)cn3)cs2)CO1 [Example 7, N-{2-[(4aR,6S,8aR)-2-amino-6-methyl-4,4a,5,6-tetrahydropyrano[3,4-d][1,3]thiazin-8a(8H)-yl]-1,3-thiazol-4-yl}-5-chloropyridine-2-carboxamide]
